Here are results for eleven molecules from patent publication US20240239781A1, “1H-PYRAZOLE DERIVATIVES AS SIGMA LIGANDS” (ACONDICIONAMIENTO TARRASENSE, priority 2021, published 2024).

For one experiment, the target named is T1, human σ2/TMEM97 receptor (Homo sapiens, UniProt Q5BJF2).
T1 construct: expressed in transfected cells; host or cells: HEK-293
In words: Binding assay to human σ2/TMEM97 receptor ([3H]-DTG, transfected HEK-293 membranes). The settings on record: class scale, read-out: Binding σ-2 Ki. The method, boiled down: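 Membranes (15 μg) from transfected HEK-293 incubated 120 min at 25 °C with 10 nM [3H]-DTG in 50 mM Tris-HCl pH 8.0; nonspecific binding with 10 μM haloperidol. Filtration and scintillation counting; % inhibition at 1 or 10 μM, or Ki from five concentrations.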

In the next experiment the target is T2, human σ1 receptor (Homo sapiens, UniProt Q99720).
T2 construct: expressed in transfected cells; host or cells: HEK-293
The experiment is described as follows: Human σ1 receptor radioligand assay ([3H](+)-pentazocine, transfected HEK-293 membranes). The following applies: class scale, read-out: Binding σ-1 Ki. A digest of the protocol:
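Membranes (7 μg) from transfected HEK-293 cells were incubated with 5 nM [3H](+)-pentazocine in 50 mM Tris-HCl, pH 8, for 120 minutes at 37° C, with 10 μM haloperidol defining non-specific binding. Bound radioactivity was filtered and counted by scintillation. Results are % inhibition at 1 or 10 μM or Ki from five concentrations.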

T1 sequence (Q5BJF2 whole entry): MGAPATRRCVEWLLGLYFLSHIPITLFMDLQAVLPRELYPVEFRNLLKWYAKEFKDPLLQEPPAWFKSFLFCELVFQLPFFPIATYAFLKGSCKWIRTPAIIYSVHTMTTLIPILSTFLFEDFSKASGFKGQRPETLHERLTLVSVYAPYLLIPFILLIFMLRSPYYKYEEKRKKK
T2 sequence (Q99720 whole entry): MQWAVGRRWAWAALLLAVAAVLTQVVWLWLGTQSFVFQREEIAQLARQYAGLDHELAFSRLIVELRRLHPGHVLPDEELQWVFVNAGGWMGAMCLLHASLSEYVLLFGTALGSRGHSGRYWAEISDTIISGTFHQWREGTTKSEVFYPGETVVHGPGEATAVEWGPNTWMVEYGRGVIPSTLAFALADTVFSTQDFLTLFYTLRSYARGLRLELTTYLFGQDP

The Ki is a measure of affinity in units of concentration, obtained from inhibition or displacement. Regarding `Cn1nc(-c2cc(C3CC3)on2)c(C(=O)N2CCC3(CCN(CCC(C)(C)C)CC3)CC2)c1Cl` [Example 191, (5-Chloro-3-(5-cyclopropylisoxazol-3-yl)-1-methyl-1H-pyrazol-4-yl)(9-(3,3-dimethylbutyl)-3,9-diazaspiro[5.5]undecan-3-yl)methanone], the values for the Ki on human σ2/TMEM97 receptor and on human σ1 receptor were less than 0.1 µM and 0.1 to 0.5 µM, respectively.

With `CCn1nc(-c2cc(C(C)C)on2)c(C(=O)N2CCC3(CCN(CCC(C)(C)C)CC3)CC2)c1Cl` [Example 192, (5-Chloro-1-ethyl-3-(5-isopropylisoxazol-3-yl)-1H-pyrazol-4-yl)(9-(3,3-dimethylbutyl)-3,9-diazaspiro[5.5]undecan-3-yl)methanone], the Ki on human σ2/TMEM97 receptor is less than 0.1 µM; at human σ1 receptor, 0.1 to 0.5 µM.

As to `Cc1cc(-c2nn(C)c(Cl)c2C(=O)N2CCCC3(CN(CCC(C)(C)C)C3)C2)no1` [Example 193, (5-Chloro-1-methyl-3-(5-methylisoxazol-3-yl)-1H-pyrazol-4-yl)(2-(3,3-dimethylbutyl)-2,6-diazaspiro[3.5]nonan-6-yl)methanone], the Ki at human σ2/TMEM97 receptor was less than 0.1 µM; on human σ1 receptor, 0.5 to 1 µM.

Regarding `CCn1nc(-c2cc(C)on2)c(C(=O)N2CCCC3(CN(CCC(C)(C)C)C3)C2)c1Cl` [Example 194, (5-Chloro-1-ethyl-3-(5-methylisoxazol-3-yl)-1H-pyrazol-4-yl)(2-(3,3-dimethylbutyl)-2,6-diazaspiro[3.5]nonan-6-yl)methanone], the Ki is less than 0.1 µM at human σ2/TMEM97 receptor and 0.5 to 1 µM at human σ1 receptor.

For `CCn1nc(-c2ccon2)c(C(=O)N2CCCC3(CN(CCC(C)(C)C)C3)C2)c1Cl` [Example 195, (5-Chloro-1-ethyl-3-(isoxazol-3-yl)-1H-pyrazol-4-yl)(2-(3,3-dimethylbutyl)-2,6-diazaspiro[3.5]nonan-6-yl)methanone], the values for the Ki on human σ2/TMEM97 receptor and at human σ1 receptor were less than 0.1 µM and 0.5 to 1 µM, respectively.

As to `CCn1cc(-c2nn(C)c(Cl)c2C(=O)N2CCC3(CCN(CCC(C)(C)C)CC3)CC2)cn1` [Example 196, (5-Chloro-1′-ethyl-1-methyl-1H,1′H-[3,4′-bipyrazol]-4-yl)(9-(3,3-dimethylbutyl)-3,9-diazaspiro[5.5]undecan-3-yl)methanone], the Ki was less than 0.1 µM at human σ2/TMEM97 receptor and 0.5 to 1 µM at human σ1 receptor.

Consider `CCn1nc(-c2ccon2)c(C(=O)NC2CCC3(CC2)CN(CCC(C)(C)C)C3)c1Cl` [Example 197, 5-Chloro-N-(2-(3,3-dimethylbutyl)-2-azaspiro[3.5]nonan-7-yl)-1-ethyl-3-(isoxazol-3-yl)-1H-pyrazole-4-carboxamide], for which the Ki was less than 0.1 µM on human σ2/TMEM97 receptor and 0.1 to 0.5 µM at human σ1 receptor.

Regarding `CCn1nc(-c2cnn(C(C)C)c2)c(C(=O)N2CCC3(CCN(CCC(C)(C)C)CC3)CC2)c1Cl` [Example 198, (5-Chloro-1-ethyl-1′-isopropyl-1H,1′H-[3,4′-bipyrazol]-4-yl)(9-(3,3-dimethylbutyl)-3,9-diazaspiro[5.5]undecan-3-yl)methanone], the Ki on human σ2/TMEM97 receptor is less than 0.1 µM; on human σ1 receptor, 0.5 to 1 µM.

For `CCn1nc(-c2cccc(C(F)(F)F)n2)c(C(=O)N2CCC3(CCN(CCC(C)(C)C)CC3)CC2)c1Cl` [Example 199, (5-Chloro-1-ethyl-3-(6-(trifluoromethyl)pyridin-2-yl)-1H-pyrazol-4-yl)(9-(3,3-dimethylbutyl)-3,9-diazaspiro[5.5]undecan-3-yl)methanone], the results for the Ki on human σ2/TMEM97 receptor and on human σ1 receptor were less than 0.1 µM and 0.1 to 0.5 µM, respectively.

Take `CCn1nc(-c2cc(C)on2)c(C(=O)N[C@H]2CC[C@H](NCCC(C)(C)C)CC2)c1Cl` [Example 200, 5-Chloro-N-((1r,4r)-4-((3,3-dimethylbutyl)amino)cyclohexyl)-1-ethyl-3-(5-methylisoxazol-3-yl)-1H-pyrazole-4-carboxamide]: the results for the Ki on human σ2/TMEM97 receptor and at human σ1 receptor were less than 0.1 µM and 0.5 to 1 µM, respectively.

For the molecule `CCn1nc(-c2cc(C)on2)c(C(=O)N[C@H]2CC[C@@H](NCCC(C)(C)C)CC2)c1Cl` [Example 201, 5-Chloro-N-((1s,4s)-4-((3,3-dimethylbutyl)amino)cyclohexyl)-1-ethyl-3-(5-methylisoxazol-3-yl)-1H-pyrazole-4-carboxamide], the Ki on human σ2/TMEM97 receptor and on human σ1 receptor was 0.1 to 0.5 µM in each case.
